Data taken from PubChem BioAssay AID256 (DTP/NCI, 2004).
Where “and” joins values, the source holds several entries; their conditions need not be identical. Equal values may be shown once. Inconclusive results and toxic doses are left out.

Test system: CD2F1 mice, L1210 leukemia ip, survival T/C
Assay: NCI In Vivo Anticancer Drug Screen. Data for tumor model L1210 Leukemia (intraperitoneal) in CD2F1 (CDF1) mice
Settings: higher = longer survival
How it was run: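 Tumor-bearing mice (transplanted tumor) were split into treated and vehicle control groups, and the measured endpoint of each treated group was divided by that of its vehicle controls.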

[1] = endpoint: mean survival time, dose: 100.0 mg/kg/injection, schedule: Q04DX003 (ip), vehicle: saline with Tween-80
[2] = endpoint: mean survival time, dose: 200.0 mg/kg/injection, schedule: Q04DX003 (ip), vehicle: saline with Tween-80
[3] = endpoint: mean survival time, dose: 100.0 mg/kg/injection, schedule: Q01DX009 (ip), vehicle: saline with Tween-80

C/[N+]([O-])=C/C1OC(n2ccc(=O)[nH]c2=O)C2OC(C)(C)OC12 (stereo not drawn)
T/C (endpoint: median survival time, dose: 21.38 mg/kg/injection, schedule: Q01DX005 (ip), vehicle: saline): 106 % of control
T/C (endpoint: median survival time, dose: 42.75 mg/kg/injection, schedule: Q01DX005 (ip), vehicle: saline): 100 % of control
T/C (endpoint: median survival time, dose: 85.5 mg/kg/injection, schedule: Q01DX005 (ip), vehicle: saline): 100 % of control
T/C (endpoint: median survival time, dose: 171.0 mg/kg/injection, schedule: Q01DX005 (ip), vehicle: saline): 107 % of control

CCC1(O)C(=O)OCc2c1cc1n(c2=O)Cc2cc3cc4c(cc3nc2-1)OCO4 (stereo not drawn)
T/C (endpoint: median survival time, dose: 1.0 mg/kg/injection, schedule: Q01DX005 (ip), vehicle: saline with Tween-80): 192 % of control
T/C (endpoint: median survival time, dose: 2.0 mg/kg/injection, schedule: Q01DX005 (ip), vehicle: saline with Tween-80): 114 % of control
T/C (endpoint: median survival time, dose: 2.0 mg/kg/injection, schedule: Q04DX002 (ip), vehicle: saline with Tween-80): 325 % of control
T/C (endpoint: median survival time, dose: 4.0 mg/kg/injection, schedule: Q01DX005 (ip), vehicle: saline with Tween-80): 101 % of control
T/C (endpoint: median survival time, dose: 4.0 mg/kg/injection, schedule: Q04DX002 (ip), vehicle: saline with Tween-80): 190 % of control and 228 % of control
T/C (endpoint: median survival time, dose: 16.0 mg/kg/injection, schedule: Q04DX002 (ip), vehicle: saline with Tween-80): 115 % of control and 124 % of control
T/C (endpoint: median survival time, dose: 32.0 mg/kg/injection, schedule: Q04DX002 (ip), vehicle: saline with Tween-80): 97 % of control

O=C1c2ccccc2CCC1(Br)C(Br)c1ccccc1 (stereo not drawn)
T/C (endpoint: mean survival time, dose: 100.0 mg/kg/injection, schedule: Q01DX009 (ip), vehicle: Klucel (hydroxypropylcellulose) (HPC)): 100 % of control
T/C (endpoint: mean survival time, dose: 200.0 mg/kg/injection, schedule: Q01DX009 (ip), vehicle: Klucel (hydroxypropylcellulose) (HPC)): 100 % of control
T/C (endpoint: mean survival time, dose: 400.0 mg/kg/injection, schedule: Q01DX009 (ip), vehicle: Klucel (hydroxypropylcellulose) (HPC)): 96 % of control

O=C(O)C1C2C/C(=N\O)C(C2)C1C(=O)O (stereo not drawn)
T/C (endpoint: mean survival time, dose: 50.0 mg/kg/injection, schedule: Q04DX003 (ip), vehicle: saline): 94 % of control
T/C (endpoint: mean survival time, dose: 100.0 mg/kg/injection, schedule: Q04DX003 (ip), vehicle: saline): 101 % of control
T/C (endpoint: mean survival time, dose: 200.0 mg/kg/injection, schedule: Q04DX003 (ip), vehicle: saline): 103 % of control

Nc1ccc(CCCCc2ccc(Cl)cc2Cl)cc1
T/C [1]: 104 % of control
T/C [2]: 110 % of control

CCC12CCCN=C1c1c([nH]c3ccccc13)CC2 (stereo not drawn)
T/C (endpoint: mean survival time, dose: 6.25 mg/kg/injection, schedule: Q04DX002 (ip), vehicle: saline with Tween-80): 102 % of control
T/C (endpoint: mean survival time, dose: 12.5 mg/kg/injection, schedule: Q04DX002 (ip), vehicle: saline with Tween-80): 104 % of control
T/C (endpoint: mean survival time, dose: 25.0 mg/kg/injection, schedule: Q04DX002 (ip), vehicle: saline with Tween-80): 98 % of control

Nc1n[nH]c2ccccc12
T/C (endpoint: median survival time, dose: 25.0 mg/kg/injection, schedule: Q01DX009 (ip), vehicle: acid diluted with saline): 101 % of control and 103 % of control and 105 % of control
T/C (endpoint: median survival time, dose: 50.0 mg/kg/injection, schedule: Q01DX009 (ip), vehicle: acid diluted with saline): 101 % of control and 108 % of control and 111 % of control
T/C (endpoint: median survival time, dose: 100.0 mg/kg/injection, schedule: Q01DX009 (ip), vehicle: acid diluted with saline): 107 % of control
T/C (endpoint: median survival time, dose: 200.0 mg/kg/injection, schedule: Q01DX009 (ip), vehicle: acid diluted with saline): 154 % of control and 158 % of control
T/C (endpoint: median survival time, dose: 400.0 mg/kg/injection, schedule: Q01DX009 (ip), vehicle: acid diluted with saline): 158 % of control

O=C(O)/C=N/NS(=O)(=O)c1ccc2ccccc2c1
T/C (endpoint: mean survival time, dose: 12.5 mg/kg/injection, schedule: Q04DX003 (ip), vehicle: other): 114 % of control
T/C (endpoint: mean survival time, dose: 25.0 mg/kg/injection, schedule: Q04DX003 (ip), vehicle: other): 119 % of control
T/C (endpoint: mean survival time, dose: 50.0 mg/kg/injection, schedule: Q04DX003 (ip), vehicle: other): 119 % of control
T/C (endpoint: mean survival time, dose: 100.0 mg/kg/injection, schedule: Q04DX003 (ip), vehicle: other): 110 % of control
T/C (endpoint: mean survival time, dose: 200.0 mg/kg/injection, schedule: Q04DX003 (ip), vehicle: other): 103 % of control

CC1(C)C=Cc2ccccc21
T/C (endpoint: mean survival time, dose: 50.0 mg/kg/injection, schedule: Q01DX009 (ip), vehicle: saline with Tween-80): 113 % of control
T/C [3]: 113 % of control

CCc1ccc(OS(=O)(=O)c2cccc([N+](=O)[O-])c2)cc1
T/C [3]: 98 % of control
T/C [1]: 94 % of control
T/C (endpoint: mean survival time, dose: 200.0 mg/kg/injection, schedule: Q01DX009 (ip), vehicle: saline with Tween-80): 91 % of control
T/C [2]: 105 % of control
T/C (endpoint: mean survival time, dose: 400.0 mg/kg/injection, schedule: Q01DX009 (ip), vehicle: saline with Tween-80): 102 % of control
T/C (endpoint: mean survival time, dose: 400.0 mg/kg/injection, schedule: Q04DX003 (ip), vehicle: saline with Tween-80): 100 % of control

O=C1OCC2(C(=O)O)C(=O)OCC12 (stereo not drawn)
T/C (endpoint: mean survival time, dose: 50.0 mg/kg/injection, schedule: Q01DX001 (ip), vehicle: saline): 97 % of control
T/C (endpoint: mean survival time, dose: 100.0 mg/kg/injection, schedule: Q01DX001 (ip), vehicle: saline): 106 % of control
T/C (endpoint: mean survival time, dose: 200.0 mg/kg/injection, schedule: Q01DX001 (ip), vehicle: saline): 106 % of control
T/C (endpoint: mean survival time, dose: 400.0 mg/kg/injection, schedule: Q01DX001 (ip), vehicle: saline): 101 % of control

CCC1(O)C(=O)OCc2c1cc1n(c2=O)Cc2cc3cc(OC)c(OC)cc3nc2-1 (stereo not drawn)
T/C (endpoint: median survival time, dose: 6.25 mg/kg/injection, schedule: Q04DX002 (ip), vehicle: saline with Tween-80): 103 % of control
T/C (endpoint: median survival time, dose: 12.5 mg/kg/injection, schedule: Q04DX002 (ip), vehicle: saline with Tween-80): 101 % of control
T/C (endpoint: median survival time, dose: 25.0 mg/kg/injection, schedule: Q04DX002 (ip), vehicle: saline with Tween-80): 103 % of control
T/C (endpoint: median survival time, dose: 50.0 mg/kg/injection, schedule: Q04DX002 (ip), vehicle: saline with Tween-80): 94 % of control
